# pIC50: −log10 of the molar value.
# Assay: Antagonist activity at lasB in Pseudomonas aeruginosa harboring lasB-gfp gene assessed as inhibition of […]-induced quorum sensing by green fluorescence protein reporter assay
row,Compound,pIC50
1,O=C(Cn1cc(-c2ccsc2)nn1)N[C@H]1CCOC1=O,3.24
2,CCCc1cn(CC(=O)N[C@H]2CCOC2=O)nn1,3.17
3,CCCCCCc1cn(CC(=O)N[C@H]2CCOC2=O)nn1,3.37
4,O=C(Cn1cc(C2CC2)nn1)N[C@H]1CCOC1=O,3.30
5,O=C(Cn1cc(C2CCCC2)nn1)N[C@H]1CCOC1=O,3.21
6,O=C(Cn1cc(CSc2ccccc2)nn1)N[C@H]1CCOC1=O,3.16
7,O=Cc1cccc(-n2cc(CCC(=O)N[C@H]3CCOC3=O)nn2)c1,3.42
8,[N-]=[N+]=Nc1ccc(C(=O)N[C@H]2CCOC2=O)cc1,2.96
9,O=C(Cn1cc(C2CCCCC2)nn1)N[C@H]1CCOC1=O,3.05
